Results taken from patent US20240308996A1, “PYRIDOPYRIDINES AND DERIVATIVES THEREOF AS SELECTIVE KINASE INHIBITORS” (University of Sharjah, priority 2023, published 2024).

How the values were obtained:
Format in all cases: cell-based
[1] = tested on: SR; experiment: NCI-60 cell line panel: SR; details: Leukemia
Protocol: (§1) It was carried out at the NCI, Bethesda, MD, USA, utilizing their standard protocol.

[2] = tested on: LOX IMVI; experiment: NCI-60 cell line panel: LOX IMVI; details: Melanoma
Protocol: as §1

[3] = tested on: SF-268; experiment: NCI-60 cell line panel: SF-268; details: CNS Cancer
Protocol: as §1

[4] = tested on: KM12; experiment: NCI-60 cell line panel: KM12; details: Colon Cancer
Protocol: as §1

[5] = tested on: MDA-MB-468; experiment: NCI-60 cell line panel: MDA-MB-468; details: Breast Cancer
Protocol: as §1

[6] = tested on: MOLT-4; experiment: NCI-60 cell line panel: MOLT-4; design: TGI: unit not given here; details: Leukemia
Protocol: as §1

[7] = tested on: Hep3B; experiment: MTT assay, Hep3B HCC cell line; details: Homo sapiens, 48 h, mean of triplicate assays ± SEM
Protocol: (§2) Two HCC cell lines (Hep3B and HepG2) were used for screening the antiproliferative activity of the synthesized compounds. The cell lines were obtained from the European Collection of Cell Cultures (ECACC, UK) and maintained in Dulbecco's Modified Eagle Medium (DMEM: Sigma-Aldrich) supplemented with 10% fetal bovine serum (FBS) and 1% penicillin/streptomycin and incubated at 37° C. in a 5% CO2 air atmosphere. In addition, WI-38 normal cell line was used to investigate the safety of these compounds.
(§3) MTT assay was conducted to calculate the IC50 of the compounds following the reported procedure . Briefly, the cells were seeded in 96-well tissue culture plates with a density of 5×10^4 cells/well and incubated overnight at 37° C. in a 5% CO2 air atmosphere. […] DMSO was used as a negative control. After 48 h, the media were aspirated, and replaced with media containing 0.5 mg/mL of MTT tetrazolium dye (Sigma-Aldrich) for 2 h at 37° C. Finally, the media were removed and 200 μL of DMSO was added to solubilize the formazan crystals. Absorbance was then measured at 570 nm using Varioskan Flash multimode plate reader (Thermo Scientific, Massachusetts, USA).

[8] = tested on: NCI-H226; experiment: NCI-60 cell line panel: NCI-H226; details: Non-Small Cell Lung Cancer
Protocol: as §1

[9] = tested on: HCT-15; experiment: NCI-60 cell line panel: HCT-15; details: Colon Cancer
Protocol: as §1

[10] = tested on: RPMI-8226; experiment: NCI-60 cell line panel: RPMI-8226; details: Leukemia
Protocol: as §1

[11] = tested on: CCRF-CEM; experiment: NCI-60 cell line panel: CCRF-CEM; details: Leukemia
Protocol: as §1

[12] = tested on: HL-60(TB); experiment: NCI-60 cell line panel: HL-60(TB); design: TGI: unit not given here; details: Leukemia
Protocol: as §1

[13] = tested on: OVCAR-5; experiment: NCI-60 cell line panel: OVCAR-5; details: Ovarian Cancer
Protocol: as §1

[14] = tested on: DU-145; experiment: NCI-60 cell line panel: DU-145; details: Prostate Cancer
Protocol: as §1

[15] = tested on: hepatocellular carcinoma cell lines; experiment: Screening against HCC cell lines
Protocol: The target compounds were tested against hepatocellular carcinoma cell lines. Compounds 1j. 13a. 13b. 13c. […] The mean inhibition percentage values are illustrated in Table 9.
as §2
MTT assay was conducted to calculate the IC50 of the compounds following the reported procedure . Briefly, the cells were seeded in 96-well tissue culture plates with a density of 5×10^4 cells/well and incubated overnight at 37° C. in a 5% CO2 air atmosphere. After that, cells were treated with the newly synthesized compounds or sorafenib as a positive control. DMSO was used as a negative control. After 48 h, the media were aspirated, and replaced with media containing 0.5 mg/mL of MTT tetrazolium dye (Sigma-Aldrich) for 2 h at 37° C. Finally, the media were removed and 200 μL of DMSO was added to solubilize the formazan crystals. Absorbance was then measured at 570 nm using Varioskan Flash multimode plate reader (Thermo Scientific, Massachusetts, USA).

[16] = tested on: A498; experiment: NCI-60 cell line panel: A498; details: Renal Cancer
Protocol: as §1

[17] = tested on: PC-3; experiment: NCI-60 cell line panel: PC-3; details: Prostate Cancer
Protocol: as §1

[18] = tested on: RXF 393; experiment: NCI-60 cell line panel: RXF 393; details: Renal Cancer
Protocol: as §1

[19] = tested on: HOP-92; experiment: NCI-60 cell line panel: HOP-92; design: TGI: unit not given here; details: Non-Small Cell Lung Cancer
Protocol: as §1

[20] = tested on: SK-OV-3; experiment: NCI-60 cell line panel: SK-OV-3; details: Ovarian Cancer
Protocol: as §1

[21] = tested on: OVCAR-8; experiment: NCI-60 cell line panel: OVCAR-8; details: Ovarian Cancer
Protocol: as §1

[22] = tested on: M14; experiment: NCI-60 cell line panel: M14; details: Melanoma
Protocol: as §1

[23] = tested on: A549/ATCC; experiment: NCI-60 cell line panel: A549/ATCC; details: Non-Small Cell Lung Cancer
Protocol: as §1

[24] = tested on: MDA-MB-435; experiment: NCI-60 cell line panel: MDA-MB-435; design: TGI: unit not given here; details: Melanoma
Protocol: as §1

[25] = tested on: SK-MEL-5; experiment: NCI-60 cell line panel: SK-MEL-5; details: Melanoma
Protocol: as §1

[26] = tested on: NCI-H322M; experiment: NCI-60 cell line panel: NCI-H322M; details: Non-Small Cell Lung Cancer
Protocol: as §1

[27] = tested on: HepG2; experiment: MTT assay, HepG2 HCC cell line; details: Homo sapiens, 48 h, mean of triplicate assays ± SEM
Protocol: as §2, §3

With `CNC(=O)c1cc(-c2ccc(NC(=O)Nc3ccc(N4CCN(C)CC4)c(C(F)(F)F)c3)cc2)nc2cccnc12` [Compound 13b, N-Methyl-2-(4-(3-(4-(4-methylpiperazin-1-yl)-3-(trifluoromethyl)phenyl)ureido)phenyl)-1,5-naphthyridine-4-carboxamide] the IC50 ([1]; Homo sapiens) was 9.97 µM, the TGI ([1]; total growth inhibition) was 44.6 µM and the IC50 ([2]; Homo sapiens) was 0.66 µM. For the same compound, the TGI ([2]; total growth inhibition) was 24.5 µM, the TGI ([3]; total growth inhibition) was 39.2 µM and the IC50 ([3]; Homo sapiens) was 17.5 µM. The TGI ([4]; total growth inhibition) was 43.3 µM, the IC50 ([4]; Homo sapiens) was 17.4 µM and the TGI ([5]; total growth inhibition) was 32.9 µM. It also gave an IC50 ([5]; Homo sapiens) of 14.8 µM, an IC50 ([6]; Homo sapiens) of 2.79 µM and a TGI ([6]; total growth inhibition) of 14.9. The IC50 [7] was 2.32 ± 0.02 µM, the IC50 ([8]; Homo sapiens) was 18 µM and the TGI ([8]; total growth inhibition) was 39.7 µM. It also gave a TGI ([9]; total growth inhibition) of 4.33 µM, an IC50 ([9]; Homo sapiens) of 2.07 µM and an IC50 ([10]; Homo sapiens) of 3.85 µM. The TGI ([10]; total growth inhibition) was 25 µM, the IC50 ([11]; Homo sapiens) was 3.16 µM and the TGI ([11]; total growth inhibition) was 74.1 µM. For the same compound, the IC50 ([12]; Homo sapiens) was 16.2 µM, the TGI ([12]; total growth inhibition) was 38.7 and the IC50 ([13]; Homo sapiens) was 15.6 µM. The TGI ([13]; total growth inhibition) was 29 µM, the IC50 ([14]; Homo sapiens) was 17.6 µM and the TGI ([14]; total growth inhibition) was 35.6 µM. For the same compound, the “inhibition activity against hepatocellular carcinoma cell lines compared with sorafenib” value [15] was “higher inhibition activity than sorafenib”, the IC50 ([16]; Homo sapiens) was at least 100 µM and the TGI ([16]; total growth inhibition) was 100 µM. It also gave an IC50 ([17]; Homo sapiens) of 15.1 µM, a TGI ([17]; total growth inhibition) of 30.1 µM and an IC50 ([18]; Homo sapiens) of 3.38 µM. It also gave a TGI ([18]; total growth inhibition) of 15 µM, an IC50 ([19]; Homo sapiens) of 6.54 µM and a TGI ([19]; total growth inhibition) of 100. For the same compound, the IC50 ([20]; Homo sapiens) was 18.5 µM, the TGI ([20]; total growth inhibition) was 34.7 µM and the IC50 ([21]; Homo sapiens) was 17.4 µM. For the same compound, the TGI ([21]; total growth inhibition, in µM (unit assumed)) was 35.4, the IC50 ([22]; Homo sapiens) was 1.79 µM and the TGI ([22]; total growth inhibition) was 3.71 µM. For the same compound, the IC50 ([23]; Homo sapiens) was 10.9 µM, the TGI ([23]; total growth inhibition) was 24.3 µM and the IC50 ([24]; Homo sapiens) was 1.75 µM. For the same compound, the TGI ([24]; total growth inhibition) was 3.27, the IC50 ([25]; Homo sapiens) was 17.5 µM and the TGI ([25]; total growth inhibition) was 31.7 µM. The IC50 ([26]; Homo sapiens) was 15.6 µM, the TGI ([26]; total growth inhibition) was 29.8 µM and the IC50 [27] was 1.48 ± 0.09 µM.
